The values below come from the SangsterLogP compilation.

One may read the logP as a log measure of how a compound divides between an organic and an aqueous phase. Read a low logP as lower lipophilicity. `c1ccc2ccccc2c1` gave a log partition coefficient (logP) of 3.37.

In turn, `CCCC(=O)c1c(C)cc(C)c(C2CC(=O)C(/C(CC)=N/OCC)=C(O)C2)c1C` (stereo not given) returned a logP of 4.74. The figure for `CC(Oc1ccc(Oc2ccc(Cl)cc2Cl)cc1)C(=O)O` (stereo not given) is 4.69. The molecule `O=C1CC(C(=O)O)CC(=O)C1=C(O)C1CC1` (stereo not given) gave a logP of 1.42. The figure for `COc1cc(OC)nc(NC(=O)NS(=O)(=O)c2ncccc2OCC(F)(F)F)n1` is 1.85.

For the molecule `CC1COC(Cn2cncn2)(c2ccc(Oc3ccc(Cl)cc3)cc2Cl)O1` (stereo not given), the log partition coefficient (logP) came to 4.24. Take `CO/C=C(/C(=O)OC)c1ccccc1COc1cc(C(F)(F)F)nc(OC(C)C)n1`: the lipophilicity (logP) amounted to 4.18.

The molecule `Nc1c(Cl)cccc1Cl` returned a logP of 2.75. Next, `COc1c(Cl)ccc(Cl)c1C(=O)O`: 2.52; `CC1=C(C(=O)Nc2ccccc2)SCCO1`: 2.08. In the case of `CC(C)(C)N(NC(=O)c1ccccc1)C(=O)c1ccccc1`, the logP was 2.43. Molecule `c1ccc2c(c1)Nc1ccccc1S2` gave a log partition coefficient (logP) of 4.08. The figure for `CC(C)(C)C(O)C(Cc1ccc(Cl)cc1Cl)n1cncn1` (stereo not given) is 3.69; for `Cc1cc(C(F)(F)F)nn1CC(=O)N1CCC(c2nc(C3=NOC(c4c(F)cccc4F)C3)cs2)CC1` (stereo not given) it is 3.6.

`CC(=O)Nc1ccccn1`: the logP stood at 0.56.
